# Test results published in PubChem BioAssay AID1996.
# Settings: buffer; pH 7.4; 200.0 µM
row,Structure (SMILES),solubility kinetic
1,O=C(CCC(=O)NCc1ccccc1)NCc1ccccc1,12.7 µg/mL
2,Cc1ccc(S(=O)(=O)c2c[nH]c3cc4c(cc3c2=O)OCO4)cc1,2 µg/mL
3,Cc1ccc(S(=O)(=O)N2CCN(c3ccccn3)CC2)cc1,0.3 µg/mL
4,O=C(NC(=S)Nc1cccc(O)c1)C1CCCCC1,> 41.8 µg/mL
5,O=C(CCc1ccccc1)N1CCCC1,29.9 µg/mL
6,Cc1nc(SCc2ccccc2F)c2oc3ccccc3c2n1,< 0.3 µg/mL
7,C[C@H]1O[C@@H](n2cc(F)c(=O)[nH]c2=O)[C@H](O)[C@@H]1O,> 36.9 µg/mL
8,COc1cc(C(=O)NCCNC(=O)c2cnccn2)cc(OC)c1OC,39.4 µg/mL
9,COc1ccc(OC)c(C(=O)Cn2cnc3ccccc3c2=O)c1,0.9 µg/mL
10,O=C(Nc1nc2cc3c(cc2s1)OCCO3)c1cccs1,0.6 µg/mL
11,CCOc1ccc(NC(=O)Nc2nc(SCC)ns2)cc1,0.8 µg/mL
12,Cc1c(C(=O)NC(C)C2CC3CCC2C3)cccc1[N+](=O)[O-] (stereo not given),34.3 µg/mL
13,COc1ccc(CCNC(=O)COC(=O)CCC(=O)c2cccs2)cc1OC,> 60.8 µg/mL
14,CN1CCOC(c2ccccc2)c2ccccc2C1.Cl (stereo not given),> 43.5 µg/mL
15,O=S(=O)(Nc1ccncc1)c1cc(Cl)c(Cl)cc1Cl,1.6 µg/mL
16,COC(=O)c1ccc(CNC(=O)CSc2nc3ccccc3[nH]2)cc1,11.6 µg/mL
17,CCN1CCN(C(=O)NC2CC(=O)N(c3ccc(OC)cc3)C2)CC1 (stereo not given),> 52 µg/mL
18,O=C1/C(=C/c2ccc([N+](=O)[O-])cc2)Oc2cc(O)ccc21,6.1 µg/mL
19,Cc1c(C(=O)NC2=NCCS2)cccc1[N+](=O)[O-],37.5 µg/mL
20,COc1ccc(NC(=O)CCCC(=O)NCCc2ccc(OC)c(OC)c2)cc1,46 µg/mL

row,Structure (SMILES),solubility kinetic
1,COc1ccc(C(=O)NCc2ccccc2C)cc1S(=O)(=O)NC1CCCC1,33.6 µg/mL
2,O=S(=O)(Cc1ccccc1)Nc1ccccc1Br,40.6 µg/mL
3,CCC(=O)c1ccc(OCC(=O)NC2CCCC2)cc1,> 41.3 µg/mL
4,COc1ccc(NC(=O)Nc2cccs2)cn1,> 37.4 µg/mL
5,CCOc1cccc2cc(C(=O)NCc3ccccc3)c(=N)oc12,2.1 µg/mL
6,CCCCCOc1ccc(C(=O)CCN2CCOCC2)cc1.Cl,34.9 µg/mL
7,CC(C)(C)c1ccc(/C=C/C(=O)NCCCN2CCOCC2)cc1,32.3 µg/mL
8,CCCNC(=O)COC(=O)c1c2c(nc3ccccc13)CCC2,45.5 µg/mL
9,CCC1(C)Cc2ccccc2-c2nc(SCC(N)=O)[nH]c(=O)c21 (stereo not given),0.8 µg/mL
10,C[N+](C)(C)CCOP(=O)([O-])OP(=O)([O-])OC[C@H]1O[C@@H](n2ccc(N)nc2=O)[C@H](O)[C@@H]1O.[Na+],3.7 µg/mL
11,COc1ccc2c(COC(=O)CNS(=O)(=O)c3ccccc3)cc(=O)oc2c1,46 µg/mL
12,Cc1cc(=O)n(C)c2ccc(S(=O)(=O)N3CCOCC3)cc12,46.5 µg/mL
13,O=S(=O)(NCCOc1ccccc1F)c1ccc(Cl)cc1F,5.7 µg/mL
14,O=C(Nc1cccc(C(=O)Nc2ccccc2F)c1)c1ccccc1,1 µg/mL
15,COc1ccc(OCC(=O)NC2CCCCCCC2)cc1,37.7 µg/mL
16,CCCn1c(SCC(=O)Nc2ccc(Cl)cc2F)nc(O)cc1=O,> 55.8 µg/mL
17,Cn1c(O)c(C=Nc2ccccc2)c(=O)n(C)c1=O,24 µg/mL
18,COc1ccc2c(CC(=O)Nc3nccs3)coc2c1,7 µg/mL
19,COc1ccc(C(=O)NC(=S)N(C)C2CCCCC2)cc1,5.5 µg/mL
20,Cc1ccnc(NC(=O)CCNC(=O)c2ccccc2Cl)c1,> 47.7 µg/mL

row,Structure (SMILES),solubility kinetic
1,COc1ccccc1/C=N/OC(=O)c1ccc(F)cc1,0.7 µg/mL
2,CC(C)c1ccccc1NC(=O)C1C2C=CC(C2)C1C(=O)O (stereo not given),42.1 µg/mL
3,CC(=O)c1cccc(NC(=S)NCc2ccccc2)c1,6.4 µg/mL
4,O=S(=O)(NCc1cn2ccccc2n1)c1ccccc1F,> 45.8 µg/mL
5,CC1CCCN(C(=O)CN2C(=O)NC(C)(c3ccc4ccccc4c3)C2=O)C1 (stereo not given),> 56.9 µg/mL
6,COc1ccc(N2CCN(c3ccc([N+](=O)[O-])nc3)CC2)cc1,3 µg/mL
7,O=C(NC1CCCCC1)c1cc(F)cc2c1OCOC2,28.9 µg/mL
8,CN(CCc1ccccn1)C(=O)Nc1cccc(Cl)c1,38.6 µg/mL
9,Clc1ccc(OCCCCCN2CCOCC2)cc1,26.6 µg/mL
10,CC(=O)Nc1sc(C)c(C)c1C(=O)OCCOc1ccccc1,1.6 µg/mL
11,COc1ccc(S(=O)(=O)N2CCSC2C)cc1C (stereo not given),34.9 µg/mL
12,CC(=O)NCCC(=O)Nc1nc(-c2c[nH]c3ccccc23)cs1,42.9 µg/mL
13,O=C(CSc1ncccn1)N1CCCCCC1,> 37.7 µg/mL
14,Clc1nc(CN2CCOCC2)nc2sc3c(c12)CCC3,44.5 µg/mL
15,COC(=O)COc1c(Cl)cc(Cl)c2ccc(C)nc12,6.7 µg/mL
16,CN(Cc1ccccc1)c1ncnc2sccc12,32.4 µg/mL
17,Nc1cc(=O)[nH]c(SCc2ccc(Cl)cc2Cl)n1,1 µg/mL
18,O=[N+]([O-])c1cccc(Nc2c([N+](=O)[O-])ccc3nonc23)c1,< 0.1 µg/mL
19,CC(C)CC1NC(=O)N(CC(=O)Nc2ccc3c(c2)CCC3)C1=O (stereo not given),5.6 µg/mL
20,CN(C)C(=O)Oc1cccc([N+](C)(C)C)c1.COS(=O)(=O)[O-],> 50.2 µg/mL
